We go through three substances from patent publication US20240216438A1, “COMPOSITION CONTAINING FUNCTION-REINFORCED STEM CELL FOR PREVENTION OR TREATMENT OF ATOPIC DERMATITIS” (SCM LIFESCIENCE CO., LTD., priority 2021, published 2024).

This assay has as its system mesenchymal stem cells. Briefly: qRT-PCR of IDO and TSG6 expression in mesenchymal stem cells treated with priming candidates. Type of assay: cell-based. To be noted: for expression of IDO and TSG6: compared to untreated control group 0, Table 1 groups, 24 hours; for lowest effective concentrations capable of inducing significantly increased expression of both TSG6 and IDO: single substance, 24 hours treatment, qRT-PCR. How it is done: In a 37° C. and 5% CO2 incubator, mesenchymal stem cells in a storage state (LN2 tank storage) were thawed and cultured, and at this time, the cells were cultured in a medium (DMEM, alpha-MEM) containing 10% FBS or 4% hPL until proliferated to a cell confluence of about 80%. The cultured mesenchymal stem cells were seeded in a 100 mm dish, and treated with candidate substances for reinforcing the functions of the mesenchymal stem cells for 24 hours, and then the concentrations of primary candidate substances for reinforcing the functions were set.
TNF-α and IFN-γIFN-α were selected as the primary candidate substances, and in order to confirm the lowest effective concentration capable of increasing the expression of TNFα-stimulated gene-6 (TSG6) and indoleamine 2,3-dioxygenase (IDO) to confirm the reinforced functions, the stem cells were treated with 5, 10, and 20 ng/ml of TNF-α, 5, 10, and 20 ng/ml of IFN-γ, and 10, 20, and 40 ng/ml of IFN-α, respectively, and changes in expression of TSG6 and IDO were confirmed.
The IDO was known as an immunomodulatory factor that inhibited the proliferation of immune cells such as T cells by converting tryptophan, which was essential for T cell proliferation, into kynurenine, and the TSG6 was known as an anti-inflammatory regulator secreted by mesenchymal stem cells. After culturing the stem cells, total RNA was isolated using TRIzol (Invitrogen), and cDNA was synthesized from total RNA using PrimeScript™ RT reagent Kit with gDNA Eraser (TaKaRa), and qRT-PCR was performed. The results of TSG6 and IDO according to the concentration of each candidate substance were illustrated in FIGS. 1, 2 and 3.
Through Example 1, candidate substances and concentration combinations thereof selected to search for more functionally reinforced compositions based on the candidate substances and the lowest effective concentrations confirmed to induce the reinforced functions of stem cells were set as shown in Table 1. Mesenchymal stem cells were treated with the candidate combinations described in Table 1 below for 24 hours, and the stem cells were cultured as in Example 1, and then total RNA was isolated using TRIzol (Invitrogen). Thereafter, qRT-PCR was performed by synthesizing cDNA from total RNA using the PrimeScript™ RT reagent Kit with gDNA Eraser (TaKaRa).
Vitamins were known to improve the proliferative ability of stem cells and maintain the stemness of stem cells when added during a stem cell culture process. Accordingly, various vitamins were treated in the stem cell culture process, and experiments were performed to confirm whether or not vitamins could achieve anti-inflammatory and immune function reinforcing effects of stem cells. Specifically, the stem cells were treated with various types of vitamins shown in Table 2 according to the method described in Example 1, and the results of confirming changes in expression of IDO and TSG6 according to treatment with each candidate substance were illustrated in FIG. 5.
(In general: Real-time PCR tracks product formation cycle by cycle.)

Regarding IFN-α, the “expression of IDO and TSG6” value is given as “increased expression”; the “lowest effective concentrations capable of inducing significantly increased expression of both TSG6 and IDO” value was found to be 20 ng/mL.
For “IFN-γ: priming candidate substance; Table 1 group 2, 10 ng/ml”, in that order: “increased expression” and 10 ng/mL.
Turning to TNF-α, the “expression of IDO and TSG6” value is on record as “increased expression”; the “lowest effective concentrations capable of inducing significantly increased expression of both TSG6 and IDO” value came out at 10 ng/mL.
